Where two headings read alike, the source gives them in different places. Positions of bridges follow the written chain, without caps; N, C: chain ends. Non-standard residues stand in square brackets, D forms with d. Residues, ends and D or L forms follow the SMILES beside them. ξ: configuration not given here. Phe(3,5-Cl2) = N[C@@H](Cc1cc(Cl)cc(Cl)c1)C(=O)O; Pro(4R-Bn) = O=C(O)[C@@H]1C[C@@H](Cc2ccccc2)CN1; Phe(4-Cl) = N[C@@H](Cc1ccc(Cl)cc1)C(=O)O; Bta = N[C@@H](Cc1csc2ccccc12)C(=O)O; cisHyp = O=C(O)[C@@H]1C[C@H](O)CN1; Hyp = O=C(O)[C@@H]1C[C@@H](O)CN1; NMeF = CN[C@@H](Cc1ccccc1)C(=O)O; NMeNle = CCCC[C@H](NC)C(=O)O; NMeM = CN[C@@H](CCSC)C(=O)O; hSer = N[C@@H](CCO)C(=O)O; NMeA = CN[C@@H](C)C(=O)O; Dab = NCC[C@H](N)C(=O)O; Dap = NC[C@H](N)C(=O)O; ξC = NC(CS)C(=O)O; Sar = CNCC(=O)O
Legend:
[1] = target: T1, LK35.2-hPD-L1 cells / PE-labeled PD-1-Ig (Homo sapiens, UniProt Q9NZQ7); experiment: LK35.2-hPD-L1 cell binding high-content screening assay; assay type: cell-based; conditions: cluster symbol, read-out: CBA IC50 cluster
T1 construct: expressed in transfected cells; host or cells: LK35.2 mouse B cell line
T1 sequence (Q9NZQ7 19-290): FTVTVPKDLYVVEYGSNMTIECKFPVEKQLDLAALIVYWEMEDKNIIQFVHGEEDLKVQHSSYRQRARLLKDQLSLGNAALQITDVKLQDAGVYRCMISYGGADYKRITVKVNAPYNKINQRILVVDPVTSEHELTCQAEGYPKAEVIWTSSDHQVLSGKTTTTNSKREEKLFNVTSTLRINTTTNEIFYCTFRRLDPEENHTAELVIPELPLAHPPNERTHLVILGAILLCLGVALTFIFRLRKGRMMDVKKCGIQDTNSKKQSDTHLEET
Outline: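 Compound effect on PD-1/PD-L1 binding is measured by imaging cell-associated phycoerythrin signal. Human PD-1-Ig (PE on Ig tag, 1 nM final) is applied with compound to a murine B cell line overexpressing human PD-L1 for 1 h at 37 °C in serum-containing RPMI.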

Human PD-L1/PD-1 = target: T2, Human PD-L1/PD-1 (Homo sapiens, UniProt Q9NZQ7); experiment: HTRF PD-1-Ig/PD-L1-His binding assay (human PD-L1); conditions: cluster symbol; read-out: HTRF IC50 cluster
T2 construct: made in house; host or cells: HEK293T
T2 sequence (Q9NZQ7 with tags, fused parts or gaps): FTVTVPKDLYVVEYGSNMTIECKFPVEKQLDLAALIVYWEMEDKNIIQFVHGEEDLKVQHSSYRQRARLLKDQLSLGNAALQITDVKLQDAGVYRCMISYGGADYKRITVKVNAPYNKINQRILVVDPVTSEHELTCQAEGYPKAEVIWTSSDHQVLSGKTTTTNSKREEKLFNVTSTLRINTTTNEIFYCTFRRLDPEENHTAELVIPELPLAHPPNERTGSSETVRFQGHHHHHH
Outline: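 Interaction of Fc-tagged soluble PD-1 with His-tagged soluble PD-L1 is monitored by time-resolved FRET. Donor is europium cryptate anti-Ig (1 nM final) and acceptor is APC anti-His (20 nM final). Assay buffer is dPBS with 0.1% BSA and 0.05% Tween-20.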

[2] = cell binding assay, cell line not given
[3] = cell line of CBA not given (LK35.2-hPD-L1 or 293T-hPD-L1)

| SMILES | IC50 [1, 2] | IC50 (Human PD-L1/PD-1) | IC50 [1, 3] |
| --- | --- | --- | --- |
| CCCC[C@H]1C(=O)N(C)[C@@H](CCCC)C(=O)N[C@@H](CCN)C(=O)N[C@H](C(=O)NCC(N)=O)CSCC(=O)N[C@@H](Cc2ccc(O)cc2)C(=O)N(C)[C@@H](C)C(=O)N[C@@H](CC(N)=O)C(=O)N2CCC[C@H]2C(=O)N[C@@H](Cc2cnc[nH]2)C(=O)N[C@@H](CCC(=O)O)C(=O)N2C[C@H](O)C[C@H]2C(=O)N[C@@H](Cc2csc3ccccc23)C(=O)N[C@@H](C)C(=O)N[C@@H](Cc2c[nH]c3ccccc23)C(=O)N1C [Example 5053] ({CH2CO}-Y[NMeA]NPHE[Hyp][Bta]AW[NMeNle][NMeNle][Dab]CG-NH2; thioether N-14) | > 74.3 nM | > 30.5 nM |  |
| CCCC[C@H]1C(=O)N(C)[C@@H](CCCC)C(=O)N[C@@H](CC(C)C)C(=O)N[C@H](C(=O)NCC(N)=O)CSCC(=O)N[C@@H](Cc2ccc(O)cc2)C(=O)N(C)[C@@H](C)C(=O)N[C@@H](CC(N)=O)C(=O)N2CCC[C@H]2C(=O)N[C@@H](CO)C(=O)N[C@@H](CCC(=O)O)C(=O)N2C[C@H](O)C[C@H]2C(=O)N[C@@H](Cc2c[nH]c3ccccc23)C(=O)N[C@@H](CCN)C(=O)N[C@@H](Cc2c[nH]c3ccccc23)C(=O)N1C [Example 5074] ({CH2CO}-Y[NMeA]NPSE[Hyp]W[Dab]W[NMeNle][NMeNle]LCG-NH2; thioether N-14) | 0.158 to 4.71 nM | 0.385 to 6.74 nM |  |
| CCCC[C@H]1C(=O)N(C)CC(=O)N[C@@H](CC(=O)O)C(=O)N[C@@H](C(C)C)C(=O)N(C)[C@@H](Cc2ccccc2)C(=O)N[C@@H](Cc2ccc(O)cc2)C(=O)N(C)CC(=O)N[C@@H](Cc2c[nH]c3ccccc23)C(=O)N[C@@H](Cc2ccc(O)cc2)C(=O)N[C@@H](CC(C)C)C(=O)N[C@H](C(=O)NCC(N)=O)CSCC(=O)N[C@@H](Cc2cc(Cl)cc(Cl)c2)C(=O)N(C)[C@@H](Cc2ccccc2)C(=O)N1C [Example 3179] ({CH2CO}-[Phe(3,5-Cl2)][NMeF][NMeNle][Sar]DV[NMeF]Y[Sar]WYLCG-NH2; thioether N-13) |  | > 30.5 nM | 4.78 to 72.9 nM |
| CCCC[C@H]1C(=O)N(C)CC(=O)N[C@@H](CC(=O)O)C(=O)N[C@@H](C(C)C)C(=O)N(C)[C@@H](Cc2ccccc2)C(=O)N[C@@H](Cc2ccc(O)cc2)C(=O)N(C)CC(=O)N[C@@H](Cc2csc3ccccc23)C(=O)N[C@@H](Cc2ccc(O)cc2)C(=O)N[C@@H](CC(C)C)C(=O)N[C@H](C(=O)NCC(N)=O)CSCC(=O)N[C@@H](Cc2ccc(Cl)cc2)C(=O)N(C)[C@@H](Cc2ccccc2)C(=O)N1C [Example 3115] ({CH2CO}-[Phe(4-Cl)][NMeF][NMeNle][Sar]DV[NMeF]Y[Sar][Bta]YLCG-NH2; thioether N-13) |  | 6.76 to 30.3 nM | 4.78 to 72.9 nM |
| CCCC[C@H]1C(=O)N(C)CC(=O)N[C@@H](CC(=O)O)C(=O)N[C@@H](CC(C)C)C(=O)N(C)[C@@H](Cc2ccccc2)C(=O)N[C@@H](Cc2ccc(O)cc2)C(=O)N(C)CC(=O)N[C@@H](Cc2c[nH]c3ccccc23)C(=O)N[C@@H](Cc2ccc(O)cc2)C(=O)N[C@@H](CC(C)C)C(=O)N[C@H](C(=O)NCC(N)=O)CSCC(=O)N[C@@H](Cc2ccccc2)C(=O)N(C)[C@@H](Cc2ccccc2)C(=O)N1C [Example 3529] (HELM PEPTIDE1{[O=C(C[*:3])[*:2]].F.[meF].[CCCC[C@@H](C(=O)[*:2])N(C)[*:1]].[Sar].D.L.[meF].Y.[Sar].W.Y.L.C.G.[am]}$PEPTIDE1,PEPTIDE1,1:R3-14:R3$$$V2.0) | 4.78 to 72.9 nM | > 30.5 nM |  |
| CCCC[C@H]1C(=O)N(C)[C@@H](CCSC)C(=O)N[C@@H](CCCNC(=N)N)C(=O)NC(C(=O)NCC(N)=O)CSCC(=O)N[C@@H](Cc2ccc(O)cc2)C(=O)N(C)[C@@H](C)C(=O)N[C@@H](CC(N)=O)C(=O)N2CCC[C@H]2C(=O)N[C@@H](CN)C(=O)N[C@@H](CC(C)C)C(=O)N2C[C@H](O)C[C@H]2C(=O)N[C@@H](Cc2c[nH]c3ccccc23)C(=O)N[C@@H](CO)C(=O)N[C@@H](Cc2csc3ccccc23)C(=O)N1C (stereo partly shown) [Example 9084] ({CH2CO}-Y[NMeA]NP[Dap]L[Hyp]WS[Bta][NMeNle][NMeM]R[ξC]G-NH2; thioether N-14) | 0.158 to 4.71 nM | 0.385 to 6.74 nM |  |
| CCCC[C@H]1C(=O)N[C@@H](CCCNC(=N)N)C(=O)N[C@H](C(=O)NCC(N)=O)CSCC(=O)N[C@@H](Cc2ccccc2)C(=O)N(C)[C@@H](C)C(=O)N[C@@H](CC(N)=O)C(=O)N2CCC[C@H]2C(=O)N[C@@H](Cc2cnc[nH]2)C(=O)N[C@@H](CC(C)C)C(=O)N(C)CC(=O)N[C@@H](Cc2c[nH]c3ccccc23)C(=O)N[C@@H](CO)C(=O)N[C@@H](Cc2c[nH]c3ccccc23)C(=O)N2CCC[C@H]2C(=O)N1C [Example 1005] (HELM PEPTIDE1{[O=C(C[*:3])[*:2]].F.[meA].N.P.H.L.[Sar].W.S.W.P.[CCCC[C@@H](C(=O)[*:2])N(C)[*:1]].R.C.G.[am]}$PEPTIDE1,PEPTIDE1,1:R3-15:R3$$$V2.0) |  | > 30.5 nM | > 74.3 nM |
| CCCC[C@H]1C(=O)N(C)[C@@H](CCCC)C(=O)N[C@@H](CCC(=O)O)C(=O)N[C@H](C(=O)NCC(N)=O)CSCC(=O)N[C@@H](Cc2ccc(O)cc2)C(=O)N(C)[C@@H](C)C(=O)N[C@@H](CC(=O)O)C(=O)N2CCC[C@H]2C(=O)N[C@@H](Cc2c[nH]cn2)C(=O)N[C@@H](CCCCN)C(=O)N2C[C@H](Cc3ccccc3)C[C@H]2C(=O)N[C@@H](Cc2c[nH]c3ccccc23)C(=O)N[C@@H](CCCCN)C(=O)N[C@@H](Cc2c[nH]c3ccccc23)C(=O)N1C [Example 13010] ({CH2CO}-Y[NMeA]DPHK[Pro(4R-Bn)]WKW[NMeNle][NMeNle]ECG-NH2; thioether N-14) | 0.158 to 4.71 nM | 0.385 to 6.74 nM |  |
| CCCC[C@H]1C(=O)N(C)[C@@H](CCCC)C(=O)N[C@@H](CCCNC(=N)N)C(=O)N[C@H](C(=O)NCC(=O)O)CSCC(=O)N[C@@H](Cc2ccc(O)cc2)C(=O)N(C)[C@@H](C)C(=O)N[C@@H](CC(N)=O)C(=O)N2CCC[C@H]2C(=O)N[C@@H](CN)C(=O)N[C@@H](CC(C)C)C(=O)N2C[C@@H](O)C[C@H]2C(=O)N[C@@H](Cc2c[nH]c3ccccc23)C(=O)N[C@@H](CO)C(=O)N[C@@H](Cc2csc3ccccc23)C(=O)N1C [Example 1141] ({CH2CO}-Y[NMeA]NP[Dap]L[cisHyp]WS[Bta][NMeNle][NMeNle]RCG-OH; thioether N-14) |  | 0.385 to 6.74 nM | 0.158 to 4.71 nM |
| CCCC[C@H]1C(=O)N(C)[C@@H](CCCC)C(=O)N[C@@H](CCCNC(=N)N)C(=O)NC(C(=O)NCC(N)=O)CSCC(=O)N[C@@H](Cc2ccc(O)cc2)C(=O)N(C)[C@@H](C)C(=O)N[C@@H](CC(N)=O)C(=O)N2CCC[C@H]2C(=O)N[C@@H](Cc2cnc[nH]2)C(=O)N[C@@H](CCO)C(=O)N2C[C@H](O)C[C@H]2C(=O)N[C@@H](Cc2c[nH]c3ccccc23)C(=O)N[C@@H](CO)C(=O)N[C@@H](Cc2c[nH]c3ccccc23)C(=O)N1C (stereo partly shown) [Example 9051] ({CH2CO}-Y[NMeA]NPH[hSer][Hyp]WSW[NMeNle][NMeNle]R[ξC]G-NH2; thioether N-14) | 0.158 to 4.71 nM | 6.76 to 30.3 nM |  |
| CCCC[C@H]1C(=O)N(C)[C@@H](CCCC)C(=O)N[C@@H](CCCNC(=N)N)C(=O)N[C@H](C(=O)NCC(N)=O)CSCC(=O)N[C@@H](Cc2ccc(O)cc2)C(=O)N(C)[C@@H](C)C(=O)N[C@@H](CC(N)=O)C(=O)N2CCC[C@H]2C(=O)N[C@@H](Cc2cnc[nH]2)C(=O)N[C@@H](CC(C)C)C(=O)N2C[C@H](O)C[C@H]2C(=O)N[C@@H](Cc2c[nH]c3ccccc23)C(=O)N[C@@H](CO)C(=O)N[C@@H](Cc2c[nH]c3ccccc23)C(=O)N1C [Example 1119] |  | 6.76 to 30.3 nM | 0.158 to 4.71 nM |

— patent US9850283B2, “Macrocyclic inhibitors of the PD-1/PD-L1 and CD80(B7-1)/PD-L1 protein/protein interactions” (BRISTOL-MYERS SQUIBB COMPANY, priority 2013, dated 2017)
